Assay: physchem
Conditions: octanol/water
Description: Lipophilicity, log P of the compound

c1ccc(Oc2ccccc2)cc1
logP: 4.2

— ChEMBL document CHEMBL1150267, “Synthesis and screening of mono- and di-aryl technetium and rhenium metallocarboranes. A new class of probes for the estrogen receptor” (J Med Chem, 2008)
